Assay results from ChEMBL document CHEMBL1201862, “PubChem BioAssay data set” (2004).
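Cultured in 96-well plates, cells were exposed to test compound for 48 hours across five concentrations. Abbreviation: GI50, concentration required for 50% inhibition of growth.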 Activity calls are given as the source filed them. Rule as the data show it: active = GI50 up to about 1.1 µM and inactive = higher.

Columns and labels:
Test in all cases: inhibition of tumour cell growth, NCI panel, 48 h
NCI-H460 = test system: NCI-H460
OVCAR-8 = test system: OVCAR-8
EKVX = test system: EKVX
UACC-257 = test system: UACC-257
RPMI-8226 = test system: RPMI-8226
SK-OV-3 = test system: SK-OV-3
CCRF-CEM = test system: CCRF-CEM
NCI-H226 = test system: NCI-H226
SF-539 = test system: SF-539
NCI-H522 = test system: NCI-H522
IGROV-1 = test system: IGROV-1
NCI-H23 = test system: NCI-H23
OVCAR-5 = test system: OVCAR-5
LOX IMVI = test system: LOX IMVI
HOP-62 = test system: HOP-62
A549 = test system: A549
KM-20L2 = test system: KM-20L2
M19-MEL = test system: M19-MEL
SK-MEL-28 = test system: SK-MEL-28
Malme-3M = test system: Malme-3M

Row | SMILES | GI50 (NCI-H460) | GI50 (OVCAR-8) | GI50 (EKVX) | GI50 (UACC-257) | GI50 (RPMI-8226) | GI50 (SK-OV-3) | GI50 (CCRF-CEM) | GI50 (NCI-H226) | GI50 (SF-539) | GI50 (NCI-H522) | GI50 (IGROV-1) | GI50 (NCI-H23) | GI50 (OVCAR-5) | GI50 (LOX IMVI) | GI50 (HOP-62) | GI50 (A549) | GI50 (KM-20L2) | GI50 (M19-MEL) | GI50 (SK-MEL-28) | GI50 (Malme-3M)
1 | O=C(O)CNc1ccc(Cl)c(Cl)c1 | 23.6 µM (inactive) | 29 µM (inactive) | 23.1 µM (inactive) | 26.7 µM (inactive) | 21.9 µM (inactive) | 37.8 µM (inactive) | 31.6 µM (inactive) | 27.5 µM (inactive) | 33.5 µM (inactive) | 16.3 µM (inactive) | 1.1 µM (active) | 34.4 µM (inactive) | 40.9 µM (inactive) | 35.2 µM (inactive) | 24 µM (inactive) | 32.1 µM (inactive) | – | – | – | –
2 | CN(C)CCNC(=O)c1cccc2[nH]c(-c3ccccn3)nc12 | 20.8 µM (inactive) | 27.9 µM (inactive) | 41.4 µM (inactive) | 28.6 µM (inactive) | 21.7 µM (inactive) | 32.6 µM (inactive) | 23.5 µM (inactive) | 18.5 µM (inactive) | 43.5 µM (inactive) | 25.6 µM (inactive) | 35.1 µM (inactive) | 43.7 µM (inactive) | 38.2 µM (inactive) | 32.5 µM (inactive) | 35.3 µM (inactive) | 36.2 µM (inactive) | 25.6 µM (inactive) | 29.7 µM (inactive) | 36.6 µM (inactive) | 24.9 µM (inactive)
3 | CCC(C)C1NC(=O)CNC(=O)C2Cc3c([nH]c4cc(O)ccc34)[S+]([O-])CC(NC(=O)CNC1=O)C(=O)NC(CC(=O)O)C(=O)N1CC(O)CC1C(=O)NC(C(C)C(O)CO)C(=O)N2 (configuration not stated) | 2.11 µM (inactive) | 3.7 µM (inactive) | 1.98 µM (inactive) | 2.44 µM (inactive) | 20.3 µM (inactive) | 13.2 µM (inactive) | 6.24 µM (inactive) | 1.6 µM (inactive) | 0.45 µM (active) | 0.776 µM (active) | 4.39 µM (inactive) | 1.83 µM (inactive) | 16.1 µM (inactive) | 2.38 µM (inactive) | 0.662 µM (active) | 4.58 µM (inactive) | 31.6 µM (inactive) | 3.24 µM (inactive) | 2.54 µM (inactive) | 1.19 µM (inactive)
4 | COc1ccc2oc(=N)c(C(=O)Nc3ccccc3)cc2c1 | 45.5 µM (inactive) | 19.2 µM (inactive) | 26.8 µM (inactive) | 62.5 µM (inactive) | 15.7 µM (inactive) | 10.9 µM (inactive) | 7.23 µM (inactive) | 31.1 µM (inactive) | 20.3 µM (inactive) | 2.58 µM (inactive) | 17.9 µM (inactive) | 15.2 µM (inactive) | 36.7 µM (inactive) | 31.6 µM (inactive) | 15.8 µM (inactive) | 34.3 µM (inactive) | – | – | 30 µM (inactive) | 15.9 µM (inactive)
5 | C=CC(Cl)(CBr)CCC(Br)C(C)(C)Cl (configuration not stated) | 14.8 µM (inactive) | 15.6 µM (inactive) | 19.8 µM (inactive) | 14.3 µM (inactive) | 7.38 µM (inactive) | 41.9 µM (inactive) | 1.89 µM (inactive) | > 100 µM (inactive) | 16.9 µM (inactive) | 10.6 µM (inactive) | 13 µM (inactive) | 17 µM (inactive) | 17.3 µM (inactive) | – | 16.3 µM (inactive) | 31.3 µM (inactive) | – | – | 17.3 µM (inactive) | 18.7 µM (inactive)
6 | CN(CCO)/N=N/c1n[nH]cc1C(N)=O | > 100 µM (inactive) | > 100 µM (inactive) | > 100 µM (inactive) | > 100 µM (inactive) | > 100 µM (inactive) | > 100 µM (inactive) | > 100 µM (inactive) | > 100 µM (inactive) | > 100 µM (inactive) | > 100 µM (inactive) | > 100 µM (inactive) | > 100 µM (inactive) | > 100 µM (inactive) | > 100 µM (inactive) | – | > 100 µM (inactive) | > 86.7 µM (inactive) | > 100 µM (inactive) | > 100 µM (inactive) | > 100 µM (inactive)
7 | O=[N+]([O-])c1cccc2c1[nH]c1c(-c3ccccc3)nccc12 | 2.33 µM (inactive) | 3.52 µM (inactive) | 3.21 µM (inactive) | 1.94 µM (inactive) | 1.46 µM (inactive) | 2.01 µM (inactive) | 1.68 µM (inactive) | 1.58 µM (inactive) | 3.19 µM (inactive) | 0.849 µM (active) | 1.8 µM (inactive) | 2.07 µM (inactive) | 3.9 µM (inactive) | 2.73 µM (inactive) | 1.87 µM (inactive) | 2.67 µM (inactive) | 2.45 µM (inactive) | 2.07 µM (inactive) | 3.84 µM (inactive) | 2.24 µM (inactive)
8 | COC(=O)c1ccc(OCc2ccc3nc(OC)c(OC)nc3c2)cc1 | > 100 µM (inactive) | > 100 µM (inactive) | > 100 µM (inactive) | > 100 µM (inactive) | > 100 µM (inactive) | – | > 100 µM (inactive) | > 100 µM (inactive) | > 100 µM (inactive) | 34 µM (inactive) | – | > 100 µM (inactive) | > 100 µM (inactive) | > 100 µM (inactive) | 68.4 µM (inactive) | > 100 µM (inactive) | – | > 100 µM (inactive) | > 100 µM (inactive) | > 100 µM (inactive)
